Data taken from patent US20250041438A1, “ANTIBODY-DRUG CONJUGATE” (NOVELTY NOBILITY INC., priority 2022, published 2025).

Key:
Kasumi-1 cells = test: In vivo efficacy against AML, Kasumi-1 xenograft model; set-up: species or system mice; conditions: day 17; imatinib 100 mg/kg p.o.
Procedure: The experiment was performed in the same manner as in Example 5, except that Kasumi-1 cells (3×10^6/100 […]/head/serum free, RPMI1640 medium) in 50% Matrigel (Corning, 354248, NY, USA) were used. The mice were enrolled in this study on day 29 after transplantation, and the average tumor volume was about 170 mm^3 (day 0).

HMC 1.2 cells = test: In vivo efficacy against mast cell tumor, HMC 1.2 xenograft model; set-up: species or system mice; conditions: day 17; imatinib 100 mg/kg p.o.
GIST-430/654 cells = test: In vivo efficacy against imatinib-resistant GIST, GIST-430/654 cell xenograft model; set-up: species or system mice; conditions: day 49; imatinib 100 mg/kg p.o.
GIST-T1 cells = type: in vivo; conditions: imatinib 100 mg/kg p.o. D0-D29
SCLC-H526 cells = test: In vivo efficacy against SCLC, SCLC-H526 xenograft model; set-up: species or system mice; conditions: day 21; imatinib 100 mg/kg p.o.
Procedure: In order to evaluate the efficacy of ADC substances against SCLC, an experiment was performed. The SCLC-H526 (NCI-H526, stage E, carcinoma; variant small cell lung cancer, c-Kit overexpression) xenograft model was used.

Cc1ccc(NC(=O)c2ccc(CN3CCN(C)CC3)cc2)cc1Nc1nccc(-c2cccnc2)n1 [imatinib, reference compound]
tumor growth inhibition compared to the control (vehicle), in words (Kasumi-1 cells): little inhibition of tumor growth | tumor growth inhibition, in words (HMC 1.2 cells): little inhibition of tumor growth | tumor growth inhibition compared to the control (vehicle), in words (GIST-430/654 cells): little inhibition of tumor growth | tumor weight after sacrifice, decrease compared to the control (vehicle) (GIST-T1 cells): about 59% | tumor growth inhibition compared to the control (vehicle), in words (SCLC-H526 cells): little inhibition of tumor growth
